Reference: publication PMC4076210, “Discovery of Novel AKT Inhibitors with Enhanced Anti-Tumor Effects in Combination with the MEK Inhibitor” (PLoS ONE, 2014)
Like-named read-outs stand apart in the source and are kept apart here.

Legend:
Test in all cases: Kinase panel
Assay type in all cases: biochemical
PKCι(h) = target: T1, PKCι(h) (Homo sapiens, UniProt P41743)
T1 construct: purchased Millipore KinaseProfiler
T1 sequence (P41743 1-596): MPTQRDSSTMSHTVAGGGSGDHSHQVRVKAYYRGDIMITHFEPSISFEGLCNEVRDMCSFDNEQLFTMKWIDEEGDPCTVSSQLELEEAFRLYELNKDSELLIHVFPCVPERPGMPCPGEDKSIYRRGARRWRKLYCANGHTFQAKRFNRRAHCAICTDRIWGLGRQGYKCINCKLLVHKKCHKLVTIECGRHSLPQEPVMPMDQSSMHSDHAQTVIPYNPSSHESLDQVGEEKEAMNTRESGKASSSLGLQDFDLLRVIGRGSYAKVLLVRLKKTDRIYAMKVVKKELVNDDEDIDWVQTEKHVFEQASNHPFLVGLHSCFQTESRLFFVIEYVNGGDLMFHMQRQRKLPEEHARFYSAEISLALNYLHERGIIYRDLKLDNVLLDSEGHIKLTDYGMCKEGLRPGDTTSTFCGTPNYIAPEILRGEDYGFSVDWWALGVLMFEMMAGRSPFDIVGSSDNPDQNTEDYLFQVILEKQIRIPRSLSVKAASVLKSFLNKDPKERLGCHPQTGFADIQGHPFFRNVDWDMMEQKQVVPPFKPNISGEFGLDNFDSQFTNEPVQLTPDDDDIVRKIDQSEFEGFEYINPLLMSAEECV

mTOR(h) = target: T2, mTOR(h) (Homo sapiens, UniProt P42345)
T2 construct: purchased Millipore KinaseProfiler

eEF-2K(h) = target: T3, eEF-2K(h) (Homo sapiens, UniProt O00418)
T3 construct: purchased Millipore KinaseProfiler

CSK(h) = target: T4, CSK(h) (Homo sapiens, UniProt P41240)
T4 construct: purchased Millipore KinaseProfiler
T4 sequence (P41240 whole entry): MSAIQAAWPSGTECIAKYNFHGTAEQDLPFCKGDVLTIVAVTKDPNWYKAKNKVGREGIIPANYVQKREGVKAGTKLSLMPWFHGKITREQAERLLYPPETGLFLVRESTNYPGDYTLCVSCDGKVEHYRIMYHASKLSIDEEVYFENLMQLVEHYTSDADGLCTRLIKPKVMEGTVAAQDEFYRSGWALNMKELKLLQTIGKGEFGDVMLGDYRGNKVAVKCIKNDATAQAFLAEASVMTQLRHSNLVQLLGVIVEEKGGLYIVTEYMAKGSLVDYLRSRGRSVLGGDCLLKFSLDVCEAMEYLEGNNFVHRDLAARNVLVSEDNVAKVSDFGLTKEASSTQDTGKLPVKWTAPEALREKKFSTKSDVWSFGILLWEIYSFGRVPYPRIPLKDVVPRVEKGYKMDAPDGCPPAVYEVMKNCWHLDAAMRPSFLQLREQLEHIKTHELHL

EGFR(L858R)(h) = target: T5, EGFR(L858R)(h) (Homo sapiens, UniProt P00533, L858R)
T5 construct: purchased Millipore KinaseProfiler
T5 sequence (P00533 25-1210 L858R): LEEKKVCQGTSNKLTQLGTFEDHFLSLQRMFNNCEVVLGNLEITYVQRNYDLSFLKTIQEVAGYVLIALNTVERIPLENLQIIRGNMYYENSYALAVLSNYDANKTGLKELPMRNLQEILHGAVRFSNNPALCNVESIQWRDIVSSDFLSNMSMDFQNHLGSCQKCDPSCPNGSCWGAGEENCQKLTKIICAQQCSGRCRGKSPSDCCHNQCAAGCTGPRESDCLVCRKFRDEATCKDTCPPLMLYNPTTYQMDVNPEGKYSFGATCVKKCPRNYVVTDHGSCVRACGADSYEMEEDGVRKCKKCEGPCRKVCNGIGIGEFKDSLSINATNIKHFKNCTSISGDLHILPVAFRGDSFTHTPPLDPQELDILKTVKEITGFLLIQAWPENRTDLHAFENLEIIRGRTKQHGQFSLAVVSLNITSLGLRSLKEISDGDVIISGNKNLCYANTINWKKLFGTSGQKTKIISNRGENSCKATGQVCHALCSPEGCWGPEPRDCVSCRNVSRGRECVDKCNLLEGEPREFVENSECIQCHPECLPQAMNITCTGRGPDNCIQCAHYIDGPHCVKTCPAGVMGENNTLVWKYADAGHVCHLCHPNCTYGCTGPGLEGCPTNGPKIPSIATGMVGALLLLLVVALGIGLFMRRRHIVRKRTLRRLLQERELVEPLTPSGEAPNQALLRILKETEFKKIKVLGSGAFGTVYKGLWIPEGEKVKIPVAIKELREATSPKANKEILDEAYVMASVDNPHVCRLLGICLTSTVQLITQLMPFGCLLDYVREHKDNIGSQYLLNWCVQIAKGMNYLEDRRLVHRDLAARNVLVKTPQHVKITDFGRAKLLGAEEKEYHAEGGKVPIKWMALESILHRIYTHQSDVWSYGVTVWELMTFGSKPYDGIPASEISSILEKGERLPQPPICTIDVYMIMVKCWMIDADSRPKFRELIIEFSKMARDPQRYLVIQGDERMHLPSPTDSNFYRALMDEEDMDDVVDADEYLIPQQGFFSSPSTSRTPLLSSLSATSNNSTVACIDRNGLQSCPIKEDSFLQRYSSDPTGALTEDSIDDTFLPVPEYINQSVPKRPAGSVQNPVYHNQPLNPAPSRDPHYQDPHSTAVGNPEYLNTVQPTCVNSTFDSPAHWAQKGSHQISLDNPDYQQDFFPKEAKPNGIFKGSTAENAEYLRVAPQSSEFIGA

PDGFRα(V561D)(h) = target: T6, PDGFRα(V561D)(h) (Homo sapiens, UniProt P16234, V561D)
T6 construct: purchased Millipore KinaseProfiler
T6 sequence (P16234 24-1089 V561D): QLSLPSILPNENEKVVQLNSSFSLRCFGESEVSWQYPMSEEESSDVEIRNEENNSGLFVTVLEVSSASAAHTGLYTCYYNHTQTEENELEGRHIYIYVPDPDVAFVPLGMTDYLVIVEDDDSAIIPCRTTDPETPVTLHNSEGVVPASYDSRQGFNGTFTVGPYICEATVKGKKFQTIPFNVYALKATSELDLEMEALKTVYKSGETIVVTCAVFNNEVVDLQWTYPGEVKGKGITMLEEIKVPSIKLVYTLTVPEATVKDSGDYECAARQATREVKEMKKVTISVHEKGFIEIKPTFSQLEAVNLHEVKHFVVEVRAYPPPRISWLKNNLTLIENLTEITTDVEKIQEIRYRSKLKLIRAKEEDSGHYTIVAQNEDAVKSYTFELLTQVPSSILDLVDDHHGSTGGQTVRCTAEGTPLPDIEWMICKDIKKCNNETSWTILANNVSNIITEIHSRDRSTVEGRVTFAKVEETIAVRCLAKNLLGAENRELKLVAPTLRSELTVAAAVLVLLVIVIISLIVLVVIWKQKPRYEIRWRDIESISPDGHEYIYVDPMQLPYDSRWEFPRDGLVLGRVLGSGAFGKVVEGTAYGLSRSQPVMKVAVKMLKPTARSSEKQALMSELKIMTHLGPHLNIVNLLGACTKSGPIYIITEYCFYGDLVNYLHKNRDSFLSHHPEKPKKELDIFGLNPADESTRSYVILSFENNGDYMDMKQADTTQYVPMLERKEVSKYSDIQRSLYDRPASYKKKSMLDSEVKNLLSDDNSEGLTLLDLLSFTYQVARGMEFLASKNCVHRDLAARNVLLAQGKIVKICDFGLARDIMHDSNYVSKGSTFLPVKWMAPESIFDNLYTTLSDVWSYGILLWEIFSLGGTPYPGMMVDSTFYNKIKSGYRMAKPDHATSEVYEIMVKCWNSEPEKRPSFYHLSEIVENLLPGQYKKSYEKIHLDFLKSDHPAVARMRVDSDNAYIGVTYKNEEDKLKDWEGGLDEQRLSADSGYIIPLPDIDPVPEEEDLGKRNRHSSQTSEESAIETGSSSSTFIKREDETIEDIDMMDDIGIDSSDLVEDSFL

GRK5(h) = target: T7, GRK5(h) (Homo sapiens, UniProt P34947)
T7 construct: purchased Millipore KinaseProfiler
T7 sequence (P34947 whole entry): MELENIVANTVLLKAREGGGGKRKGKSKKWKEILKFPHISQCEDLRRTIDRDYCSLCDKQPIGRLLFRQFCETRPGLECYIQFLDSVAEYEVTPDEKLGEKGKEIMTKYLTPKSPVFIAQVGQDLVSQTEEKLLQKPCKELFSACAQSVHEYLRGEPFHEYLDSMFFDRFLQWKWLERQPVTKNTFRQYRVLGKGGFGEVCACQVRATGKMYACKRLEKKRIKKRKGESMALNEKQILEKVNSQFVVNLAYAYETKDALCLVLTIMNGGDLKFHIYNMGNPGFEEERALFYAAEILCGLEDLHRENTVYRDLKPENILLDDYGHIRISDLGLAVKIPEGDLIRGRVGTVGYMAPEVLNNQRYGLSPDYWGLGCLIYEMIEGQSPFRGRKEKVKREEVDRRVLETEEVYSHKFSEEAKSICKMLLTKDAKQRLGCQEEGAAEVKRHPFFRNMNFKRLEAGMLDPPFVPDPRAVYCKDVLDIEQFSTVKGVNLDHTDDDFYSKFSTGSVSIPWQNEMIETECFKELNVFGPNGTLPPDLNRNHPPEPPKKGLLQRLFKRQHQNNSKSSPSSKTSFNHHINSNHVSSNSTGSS

Fer(h) = target: T8, Fer(h) (Homo sapiens, UniProt P16591)
T8 construct: purchased Millipore KinaseProfiler
T8 sequence (P16591 whole entry): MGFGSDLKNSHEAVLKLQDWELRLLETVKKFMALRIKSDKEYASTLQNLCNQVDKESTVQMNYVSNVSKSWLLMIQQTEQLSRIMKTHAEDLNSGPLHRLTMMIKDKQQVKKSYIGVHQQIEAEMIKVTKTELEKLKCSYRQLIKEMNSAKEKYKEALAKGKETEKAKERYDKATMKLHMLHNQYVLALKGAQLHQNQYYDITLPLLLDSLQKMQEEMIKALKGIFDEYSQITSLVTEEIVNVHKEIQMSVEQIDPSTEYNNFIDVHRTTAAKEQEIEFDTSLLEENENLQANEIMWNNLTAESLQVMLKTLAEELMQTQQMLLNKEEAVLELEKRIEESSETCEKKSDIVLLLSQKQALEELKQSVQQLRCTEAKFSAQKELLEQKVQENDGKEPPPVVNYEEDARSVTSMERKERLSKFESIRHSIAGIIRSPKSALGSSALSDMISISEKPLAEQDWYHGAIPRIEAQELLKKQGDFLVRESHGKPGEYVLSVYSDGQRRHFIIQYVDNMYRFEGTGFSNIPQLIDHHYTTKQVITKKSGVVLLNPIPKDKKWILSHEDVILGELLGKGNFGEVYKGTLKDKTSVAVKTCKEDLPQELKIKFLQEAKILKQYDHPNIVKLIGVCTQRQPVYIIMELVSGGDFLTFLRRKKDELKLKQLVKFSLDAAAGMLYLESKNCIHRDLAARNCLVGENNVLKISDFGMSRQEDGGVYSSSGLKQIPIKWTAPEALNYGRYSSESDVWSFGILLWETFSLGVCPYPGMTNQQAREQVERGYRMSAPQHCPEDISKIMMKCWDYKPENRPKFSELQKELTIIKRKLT

GSK3β(h) = target: T9, GSK3β(h) (Homo sapiens, UniProt P49841)
T9 construct: purchased Millipore KinaseProfiler
T9 sequence (P49841 whole entry): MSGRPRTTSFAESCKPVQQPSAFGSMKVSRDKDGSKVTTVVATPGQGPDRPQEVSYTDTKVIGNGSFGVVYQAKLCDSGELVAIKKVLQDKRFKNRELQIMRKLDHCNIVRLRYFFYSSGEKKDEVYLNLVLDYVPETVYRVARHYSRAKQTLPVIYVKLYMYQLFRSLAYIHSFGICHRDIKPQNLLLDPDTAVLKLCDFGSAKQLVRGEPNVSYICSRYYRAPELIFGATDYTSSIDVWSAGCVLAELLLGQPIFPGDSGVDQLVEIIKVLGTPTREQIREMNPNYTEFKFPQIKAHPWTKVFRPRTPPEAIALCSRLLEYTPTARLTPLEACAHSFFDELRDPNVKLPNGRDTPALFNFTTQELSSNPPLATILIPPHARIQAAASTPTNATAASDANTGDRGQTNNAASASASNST

CDK2/cyclinA(h) = target: T10, CDK2/cyclinA(h) (Homo sapiens, UniProt P24941)
T10 construct: purchased Millipore KinaseProfiler

Src(T341M)(h) = target: T11, Src(T341M)(h) (Homo sapiens, UniProt P12931, T341M)
T11 construct: purchased Millipore KinaseProfiler
T11 sequence (P12931 whole entry T341M): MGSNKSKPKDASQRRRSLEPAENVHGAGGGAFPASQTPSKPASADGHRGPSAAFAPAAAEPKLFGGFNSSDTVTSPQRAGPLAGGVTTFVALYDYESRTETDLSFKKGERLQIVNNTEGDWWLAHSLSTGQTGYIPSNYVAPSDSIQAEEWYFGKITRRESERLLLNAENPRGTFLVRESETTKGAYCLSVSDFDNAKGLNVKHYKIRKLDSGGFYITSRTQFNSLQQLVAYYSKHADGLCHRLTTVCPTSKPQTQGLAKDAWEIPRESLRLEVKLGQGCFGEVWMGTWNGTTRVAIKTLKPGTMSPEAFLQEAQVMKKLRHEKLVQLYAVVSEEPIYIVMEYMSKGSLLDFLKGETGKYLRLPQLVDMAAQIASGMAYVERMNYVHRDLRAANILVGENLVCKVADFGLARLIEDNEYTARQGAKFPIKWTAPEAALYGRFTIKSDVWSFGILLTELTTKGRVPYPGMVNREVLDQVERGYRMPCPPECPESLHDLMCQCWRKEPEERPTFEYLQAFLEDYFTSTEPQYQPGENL

ASK1(h) = target: T12, ASK1(h) (Homo sapiens, UniProt Q99683)
T12 construct: purchased Millipore KinaseProfiler
T12 sequence (Q99683 1-1374): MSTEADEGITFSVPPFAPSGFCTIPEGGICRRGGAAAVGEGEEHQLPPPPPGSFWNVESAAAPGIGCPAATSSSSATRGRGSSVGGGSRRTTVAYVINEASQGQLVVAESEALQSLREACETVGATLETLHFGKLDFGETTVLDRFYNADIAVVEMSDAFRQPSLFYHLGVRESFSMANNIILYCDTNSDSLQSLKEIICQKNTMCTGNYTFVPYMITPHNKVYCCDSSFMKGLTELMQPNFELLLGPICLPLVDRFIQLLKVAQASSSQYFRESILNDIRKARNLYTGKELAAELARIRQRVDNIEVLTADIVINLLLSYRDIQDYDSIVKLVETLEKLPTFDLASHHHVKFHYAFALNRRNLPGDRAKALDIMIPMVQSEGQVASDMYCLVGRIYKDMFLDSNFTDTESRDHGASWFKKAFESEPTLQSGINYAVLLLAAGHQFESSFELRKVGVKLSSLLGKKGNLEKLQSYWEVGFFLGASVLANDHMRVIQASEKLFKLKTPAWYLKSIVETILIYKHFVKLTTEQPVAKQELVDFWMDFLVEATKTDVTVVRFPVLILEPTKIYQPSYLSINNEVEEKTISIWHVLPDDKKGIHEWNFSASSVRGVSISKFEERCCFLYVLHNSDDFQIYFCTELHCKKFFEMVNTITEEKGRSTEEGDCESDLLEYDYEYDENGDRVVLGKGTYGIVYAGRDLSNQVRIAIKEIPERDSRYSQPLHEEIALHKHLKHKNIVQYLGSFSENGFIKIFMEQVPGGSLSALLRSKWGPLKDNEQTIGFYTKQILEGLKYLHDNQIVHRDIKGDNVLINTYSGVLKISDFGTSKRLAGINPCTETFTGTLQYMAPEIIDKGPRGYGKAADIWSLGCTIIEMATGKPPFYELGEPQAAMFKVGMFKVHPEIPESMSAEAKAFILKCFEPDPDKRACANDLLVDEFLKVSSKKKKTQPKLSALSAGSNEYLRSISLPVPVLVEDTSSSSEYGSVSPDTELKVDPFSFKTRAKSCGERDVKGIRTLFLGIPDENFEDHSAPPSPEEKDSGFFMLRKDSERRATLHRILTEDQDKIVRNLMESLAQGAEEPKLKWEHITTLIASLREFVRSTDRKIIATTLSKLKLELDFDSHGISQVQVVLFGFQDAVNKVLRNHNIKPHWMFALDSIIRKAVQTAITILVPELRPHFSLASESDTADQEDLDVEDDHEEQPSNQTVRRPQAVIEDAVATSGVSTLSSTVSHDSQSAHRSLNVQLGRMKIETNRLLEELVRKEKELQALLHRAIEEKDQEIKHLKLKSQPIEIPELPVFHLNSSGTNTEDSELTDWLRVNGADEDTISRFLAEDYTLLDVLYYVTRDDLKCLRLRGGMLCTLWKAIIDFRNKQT

Cn1ncc(Cl)c1-c1cc(C(=O)N[C@H](CN)Cc2cccc(F)c2)sc1Cl [GSK2110183]
inhibition at 0.5 µM (PKCι(h)): 1%
inhibition at 10 µM (PKCι(h)): 50%
inhibition at 0.5 µM (mTOR(h)): 17%
inhibition at 10 µM (mTOR(h)): -9%
inhibition at 0.5 µM (eEF-2K(h)): -3%
inhibition at 10 µM (eEF-2K(h)): 13%
inhibition at 0.5 µM (CSK(h)): 11%
inhibition at 10 µM (CSK(h)): 15%
inhibition at 0.5 µM (EGFR(L858R)(h)): 3%
inhibition at 10 µM (EGFR(L858R)(h)): 15%
inhibition at 0.5 µM (PDGFRα(V561D)(h)): 2%
inhibition at 10 µM (PDGFRα(V561D)(h)): 26%
inhibition at 0.5 µM (GRK5(h)): -8%
inhibition at 10 µM (GRK5(h)): -1%
inhibition at 0.5 µM (Fer(h)): -8%
inhibition at 10 µM (Fer(h)): 16%
inhibition at 0.5 µM (GSK3β(h)): 4%
inhibition at 10 µM (GSK3β(h)): 5%
inhibition at 0.5 µM (CDK2/cyclinA(h)): -10%
inhibition at 10 µM (CDK2/cyclinA(h)): 1%
inhibition at 0.5 µM (Src(T341M)(h)): 24%
inhibition at 10 µM (Src(T341M)(h)): 83%
inhibition at 0.5 µM (ASK1(h)): -2%
inhibition at 10 µM (ASK1(h)): 3%

Cn1ncc(Cl)c1-c1cc(C(=O)N[C@H](CN)Cc2ccc(F)c(F)c2)oc1Cl [GSK2141795]
inhibition at 0.5 µM (PKCι(h); 0.5 µM, read-out: % Inhibition): 0%
inhibition at 10 µM (PKCι(h); 10 µM, read-out: % Inhibition): 43%
inhibition at 0.5 µM (mTOR(h); 0.5 µM, read-out: % Inhibition): -16%
inhibition at 10 µM (mTOR(h); 10 µM, read-out: % Inhibition): -4%
inhibition at 0.5 µM (eEF-2K(h); 0.5 µM, read-out: % Inhibition): 4%
inhibition at 10 µM (eEF-2K(h); 10 µM, read-out: % Inhibition): 3%
inhibition at 0.5 µM (CSK(h); 0.5 µM, read-out: % Inhibition): 0%
inhibition at 10 µM (CSK(h); 10 µM, read-out: % Inhibition): -14%
inhibition at 0.5 µM (EGFR(L858R)(h); 0.5 µM, read-out: % Inhibition): 3%
inhibition at 10 µM (EGFR(L858R)(h); 10 µM, read-out: % Inhibition): 24%
inhibition at 0.5 µM (PDGFRα(V561D)(h); 0.5 µM, read-out: % Inhibition): -5%
inhibition at 10 µM (PDGFRα(V561D)(h); 10 µM, read-out: % Inhibition): 14%
inhibition at 0.5 µM (GRK5(h); 0.5 µM, read-out: % Inhibition): 4%
inhibition at 10 µM (GRK5(h); 10 µM, read-out: % Inhibition): 43%
inhibition at 0.5 µM (Fer(h); 0.5 µM, read-out: % Inhibition): 1%
inhibition at 10 µM (Fer(h); 10 µM, read-out: % Inhibition): -4%
inhibition at 0.5 µM (GSK3β(h); 0.5 µM, read-out: % Inhibition): -8%
inhibition at 10 µM (GSK3β(h); 10 µM, read-out: % Inhibition): -13%
inhibition at 0.5 µM (CDK2/cyclinA(h); 0.5 µM, read-out: % Inhibition): 1%
inhibition at 10 µM (CDK2/cyclinA(h); 10 µM, read-out: % Inhibition): 20%
inhibition at 0.5 µM (Src(T341M)(h); 0.5 µM, read-out: % Inhibition): 34%
inhibition at 10 µM (Src(T341M)(h); 10 µM, read-out: % Inhibition): 88%
inhibition at 0.5 µM (ASK1(h); 0.5 µM, read-out: % Inhibition): -21%
inhibition at 10 µM (ASK1(h); 10 µM, read-out: % Inhibition): -14%
